Reference: paper PMC2652249 (Biochemistry, 2008)
Where “and” joins values, the source holds several entries; their conditions need not be identical. Identical values can stand only once. Entries after “also recorded” stand apart in the source; their conditions may differ. Like-named read-outs stand apart in the source and are kept apart here.

Assays:
DNA polymerase X (Pol X) [1] = target: T1, DNA polymerase X (Pol X) (African swine fever virus, UniProt P42494); experiment: biochemical; assay type: biochemical
DNA polymerase X (Pol X) [2] = target: T1, DNA polymerase X (Pol X)
DNA polymerase X (Pol X) [3] = target: T1, DNA polymerase X (Pol X); conditions: cited from earlier work

T1 sequence (P42494 whole entry, looked up): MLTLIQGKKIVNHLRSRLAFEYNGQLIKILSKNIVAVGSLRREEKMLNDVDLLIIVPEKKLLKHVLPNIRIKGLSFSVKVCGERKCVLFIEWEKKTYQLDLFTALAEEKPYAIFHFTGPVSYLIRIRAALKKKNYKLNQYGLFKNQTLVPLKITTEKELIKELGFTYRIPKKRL

## Nc1ccn([C@H]2C[C@H](O)[C@@H](COP(=O)(O)OP(=O)(O)OP(=O)(O)O)O2)c(=O)n1 [dCTP]
DNA polymerase X (Pol X) [1]
  Km: 32 µM and 45 µM
  Vmax: 0.52 ± 0.02 nmol/min and 0.49 ± 0.02 nmol/min
  global fitting Vmax: 0.51 nmol/min and 0.47 nmol/min
DNA polymerase X (Pol X) [1]; read-out: global fitting Km
  Km: 35 µM and 41 µM
DNA polymerase X (Pol X) [2]
  single-exponential rate k of fluorescence change: 1.64 s⁻¹ and 1.64 ± 0.01 s⁻¹

## O=P(O)(O)OP(=O)(O)O [PPi, Pyrophosphate]
DNA polymerase X (Pol X) [1]
  inhibition of Pol X by PPi: not inhibited noticeably; also recorded: modest inhibition

## Nc1ncnc2c1ncn2[C@H]1C[C@H](O)[C@@H](COP(=O)(O)OP(=O)(O)OP(=O)(O)O)O1 [dATP]
DNA polymerase X (Pol X) [1]
  global fitting Vmax: 1.51 nmol/min
  incorporation under the steady-state conditions: no detectable incorporation
DNA polymerase X (Pol X) [1]; global fitting KI
  Ki: 48 µM and 150 µM
DNA polymerase X (Pol X) [1]; read-out: global fitting Km
  Km: 13 µM
DNA polymerase X (Pol X) [2]
  k1 of fluorescence change (double-exponential): 5.92 ± 0.21 s⁻¹
  k2 of fluorescence change (double-exponential): 1.17 ± 0.02 s⁻¹
DNA polymerase X (Pol X) [3]
  turnover rate slower than the rate of correct dG:dCTP incorporation: 430 fold
DNA polymerase X (Pol X) [3]; read-out: KD,app
  Kd: 80 µM
